Assay results from US20100247617A1, “Transdermal Administration Of (2S)-(4E)-N-Methyl-5-(3-(5-Isopropoxypyridin)yl)-4-Penten-2-Amine” (TARGACEPT, INC., priority 2007, published 2010).

Assays:
[1] = Maximal solubility in water; format: physicochemical
[2] = In vitro skin penetration study using pig-ear (Bronaugh diffusion cells); format: in vitro ADME; conditions: receiver PBS pH 7.4, 32° C.; for Cumulative penetrated amount: 24-hour period, pig-ear skin; for Steady state flux: pig-ear skin approx. 900 μm, average ± SD
Protocol: Bronaugh diffusion cells were used for in vitro penetration studies, which were carried out to determine the flux (i.e. the speed by which the compound penetrates skin) and total cumulated amount penetrated of ^14C-active ingredient. The compound was dissolved in water at two concentrations, 35 and 135 mg/g. Pig-ear full-thickness skin (dermatomed to approx. 900 μm thick) was used as the membrane. The receiver compartment contained phosphate buffered saline (pH 7.4) and the temperature was maintained at 32° C. The compound solutions were applied onto the stratum corneum. Receiver compartment samples (2, 4, 8 12 and 14 h) were assayed by liquid scintillation counting. The transdermal flux (μg/cm^2/h) can be determined from the steady-state slope of the plot of the cumulative amount of active ingredient permeating through the skin versus time. After steady-state was established, the linear portion of the plot was used to calculate the flux from the slope.
The cumulative penetrated amounts and derived steady state fluxes for both tested concentrations during a 24-hour period are presented in FIG. 1 and TABLE 1.

[3] = test concentration 35 mg/g water
[4] = test concentration 135 mg/g water

maximal solubility in water [1]: 200 mg/g
Cumulative penetrated amount [2, 3]: 27 ± 36 μg/cm^2
Steady state flux [2, 3]: 2.6 ± 3.6 μg/cm^2/h
Cumulative penetrated amount [2, 4]: 55 ± 88 μg/cm^2
Steady state flux [2, 4]: 5.1 ± 9.0 μg/cm^2/h
SMILES: CN[C@@H](C)C/C=C/c1cncc(OC(C)C)c1 [active ingredient, (2S)-(4E)-N-methyl-5-(3-(5-isopropoxypyridin)yl)-4-penten-2-amine]
